Several values for one entry are separate records, joined by “and”; a condition that tells them apart may be missing. Identical values can stand only once. Toxic doses and inconclusive results are not listed. Rule for the calls: active = survival T/C of 150% or more; inactive = T/C below 125% in these data.
System: P388 leukemia ip, CD2F1 mice, survival T/C
Assay: NCI In Vivo Anticancer Drug Screen. Data for tumor model P388 Leukemia (intraperitoneal) in CD2F1 (CDF1) mice
Conditions: endpoint: median survival time, higher = longer survival
How it was run: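 Mice carrying the transplanted tumor received test compound or vehicle. Survival was recorded in each group, and the value is the treated-group measurement divided by that of the vehicle-treated control group.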

[1] = dose: 50.0 mg/kg/injection, schedule: Q01DX005 (ip), vehicle: Klucel (hydroxypropylcellulose) (HPC)
[2] = dose: 100.0 mg/kg/injection, schedule: Q01DX005 (ip), vehicle: Klucel (hydroxypropylcellulose) (HPC)
[3] = dose: 200.0 mg/kg/injection, schedule: Q01DX005 (ip), vehicle: Klucel (hydroxypropylcellulose) (HPC)
[4] = dose: 60.0 mg/kg/injection, schedule: Q01DX005 (ip), vehicle: saline with Tween-80
[5] = dose: 120.0 mg/kg/injection, schedule: Q01DX005 (ip), vehicle: saline with Tween-80
[6] = dose: 240.0 mg/kg/injection, schedule: Q01DX005 (ip), vehicle: saline with Tween-80
[7] = dose: 50.0 mg/kg/injection, schedule: Q01DX005 (ip), vehicle: saline
[8] = dose: 50.0 mg/kg/injection, schedule: Q01DX009 (ip), vehicle: Klucel (hydroxypropylcellulose) (HPC)
[9] = dose: 100.0 mg/kg/injection, schedule: Q01DX005 (ip), vehicle: saline
[10] = dose: 200.0 mg/kg/injection, schedule: Q01DX005 (ip), vehicle: saline
[11] = dose: 50.0 mg/kg/injection, schedule: Q01DX009 (ip), vehicle: saline with Tween-80

Measured: T/C

COC(=O)C1=C(O)/C(=C\c2ccccc2)NC1=O
inactive: [1] 101 % of control | [2] 108 % of control | [3] 104 % of control

CC(=O)N(c1ccncc1)c1ccc([N+](=O)[O-])cc1
inactive: [4] 94 % of control | [5] 92 % of control | [6] 88 % of control

CC1CCC(=O)CN1Cc1ccccc1 (stereo not given)
inactive: dose: 50.0 mg/kg/injection, schedule: Q01DX005 (ip), vehicle: saline with Tween-80 109 % of control | dose: 100.0 mg/kg/injection, schedule: Q01DX005 (ip), vehicle: saline with Tween-80 101 % of control

O=C1CC2(Cl)CN3c4ccccc4C(=O)CC3(Cl)CN2c2ccccc21 (stereo not given)
inactive: dose: 12.5 mg/kg/injection, schedule: Q04DX003 (ip), vehicle: alcohol 100 % of control and 106 % of control | dose: 25.0 mg/kg/injection, schedule: Q04DX003 (ip), vehicle: alcohol 99 % of control and 106 % of control | dose: 50.0 mg/kg/injection, schedule: Q04DX003 (ip), vehicle: alcohol 100 % of control and 108 % of control

O=C1CSC(c2ccccc2F)N1c1nncs1 (stereo not given)
inactive: dose: 30.0 mg/kg/injection, schedule: Q01DX005 (ip), vehicle: Klucel (hydroxypropylcellulose) (HPC) 100 % of control | dose: 60.0 mg/kg/injection, schedule: Q01DX005 (ip), vehicle: Klucel (hydroxypropylcellulose) (HPC) 99 % of control | dose: 120.0 mg/kg/injection, schedule: Q01DX005 (ip), vehicle: Klucel (hydroxypropylcellulose) (HPC) 100 % of control | dose: 240.0 mg/kg/injection, schedule: Q01DX005 (ip), vehicle: Klucel (hydroxypropylcellulose) (HPC) 110 % of control

COc1cc(NCCCCCNC(C)C)c2ncc(C)c(C)c2c1
inactive: dose: 12.5 mg/kg/injection, schedule: Q01DX005 (ip), vehicle: saline 102 % of control | dose: 25.0 mg/kg/injection, schedule: Q01DX005 (ip), vehicle: saline 100 % of control | [7] 100 % of control

CC1(C)C[C@@]2(F)C(=O)NC(=O)N[C@@H]12
inactive: dose: 12.5 mg/kg/injection, schedule: Q01DX001 (ip), vehicle: Klucel (hydroxypropylcellulose) (HPC) 103 % of control | dose: 25.0 mg/kg/injection, schedule: Q01DX001 (ip), vehicle: Klucel (hydroxypropylcellulose) (HPC) 106 % of control | dose: 50.0 mg/kg/injection, schedule: Q01DX001 (ip), vehicle: Klucel (hydroxypropylcellulose) (HPC) 99 % of control

O=C(NCCCN1CCOCC1)Nc1ccc(Cc2ccc(NC(=O)NCCCN3CCOCC3)cc2)cc1
inactive: [8] 94 % of control | dose: 100.0 mg/kg/injection, schedule: Q01DX009 (ip), vehicle: Klucel (hydroxypropylcellulose) (HPC) 94 % of control | dose: 200.0 mg/kg/injection, schedule: Q01DX009 (ip), vehicle: Klucel (hydroxypropylcellulose) (HPC) 94 % of control

O=CC(C(=O)c1ccccc1[N+](=O)[O-])c1ccccc1 (stereo not given)
inactive: [1] 89 % of control | [2] 104 % of control | [3] 98 % of control

CN(C)[C@@H]1C(=O)C(C(N)=O)=C(O)[C@]2(O)C(=O)C3C(=O)c4c(O)ccc(Cl)c4[C@](C)(O)[C@H]3C[C@@H]12 (stereo not given in full)
inactive: dose: 8.8 mg/kg/injection, schedule: Q01DX009 (ip), vehicle: saline with Tween-80 109 % of control | dose: 13.3 mg/kg/injection, schedule: Q01DX009 (ip), vehicle: saline with Tween-80 100 % of control | dose: 20.0 mg/kg/injection, schedule: Q01DX009 (ip), vehicle: saline with Tween-80 109 % of control | dose: 30.0 mg/kg/injection, schedule: Q01DX009 (ip), vehicle: saline with Tween-80 118 % of control

Cc1ccc(S(=O)(=O)/N=C/[N-][n+]2cccc(C)c2)cc1
inactive: dose: 100.0 mg/kg/injection, schedule: Q04DX003 (ip), vehicle: saline 104 % of control | dose: 200.0 mg/kg/injection, schedule: Q04DX003 (ip), vehicle: saline 97 % of control | dose: 400.0 mg/kg/injection, schedule: Q04DX003 (ip), vehicle: saline 97 % of control

CC1CC(=O)Nc2cc(C(F)(F)F)ccc2N1 (stereo not given)
inactive: [1] 95 % of control | [2] 99 % of control | [3] 93 % of control

COCCCOC(=O)NCCCCC(N)C(=O)O (stereo not given)
inactive: [7] 98 % of control | [9] 106 % of control | [10] 100 % of control

Cc1ccc(OS(=O)(=O)NC(=O)NCc2ccco2)cc1
inactive: dose: 50.0 mg/kg/injection, schedule: Q01DX009 (ip), vehicle: saline 92 % of control | dose: 100.0 mg/kg/injection, schedule: Q01DX009 (ip), vehicle: saline 101 % of control | dose: 200.0 mg/kg/injection, schedule: Q01DX009 (ip), vehicle: saline 105 % of control

COc1ccc(Cc2nnc(SC)n2-c2ccc(F)cc2)cc1OC
inactive: [4] 102 % of control | [5] 95 % of control | [6] 102 % of control

NNC(=O)C1CCCC1
inactive: dose: 6.25 mg/kg/injection, schedule: Q01DX009 (ip), vehicle: saline with Tween-80 113 % of control | dose: 12.5 mg/kg/injection, schedule: Q01DX009 (ip), vehicle: saline with Tween-80 104 % of control | dose: 25.0 mg/kg/injection, schedule: Q01DX009 (ip), vehicle: saline with Tween-80 100 % of control | [11] 113 % of control

CC(=O)NCCSSCc1ccccc1CS(=O)O
inactive: dose: 25.0 mg/kg/injection, schedule: Q01DX005 (ip), vehicle: suspension in saline 104 % of control | dose: 50.0 mg/kg/injection, schedule: Q01DX005 (ip), vehicle: suspension in saline 106 % of control | dose: 100.0 mg/kg/injection, schedule: Q01DX005 (ip), vehicle: suspension in saline 113 % of control

COc1ccc(-c2cc(-c3ccccc3)c(-c3ccccc3)nn2)cc1CN1CCOCC1
inactive: [11] 99 % of control | dose: 100.0 mg/kg/injection, schedule: Q01DX009 (ip), vehicle: saline with Tween-80 100 % of control | dose: 200.0 mg/kg/injection, schedule: Q01DX009 (ip), vehicle: saline with Tween-80 95 % of control

COc1ccc(N2C(=O)C3CSCN3C2=O)cc1 (stereo not given)
inactive: [4] 100 % of control | [5] 94 % of control | [6] 92 % of control

CN(C)Cc1cc(C(=O)c2ccccc2)c(O)cc1O
inactive: dose: 25.0 mg/kg/injection, schedule: Q01DX009 (ip), vehicle: Klucel (hydroxypropylcellulose) (HPC) 103 % of control | [8] 103 % of control

C/C(=C\C(=O)c1ccccc1)Nc1noc(-c2ccccc2)n1
inactive: [4] 97 % of control | [5] 94 % of control | [6] 96 % of control

O=C(O)C(Cc1c[nH]c2ccc(O)cc12)NCC1(O)OCC(O)C(O)C1O (stereo not given)
inactive: dose: 60.0 mg/kg/injection, schedule: Q01DX005 (ip), vehicle: saline 97 % of control | dose: 120.0 mg/kg/injection, schedule: Q01DX005 (ip), vehicle: saline 99 % of control | dose: 240.0 mg/kg/injection, schedule: Q01DX005 (ip), vehicle: saline 98 % of control

COC(=O)[C@@]12OC[C@]34C([C@@H](O)C1O)[C@@]1(C)CC(=O)C(O)=C(C)C1C[C@H]3OC(=O)[C@H](OC(=O)c1cccc(Cl)c1)[C@H]42 (stereo not given in full)
inactive: dose: 0.25 mg/kg/injection, schedule: Q01DX005 (ip), vehicle: DMSO 119 % of control | dose: 0.5 mg/kg/injection, schedule: Q01DX005 (ip), vehicle: DMSO 112 % of control | dose: 1.0 mg/kg/injection, schedule: Q01DX005 (ip), vehicle: DMSO 121 % of control and 93 % of control | dose: 2.0 mg/kg/injection, schedule: Q01DX005 (ip), vehicle: DMSO 109 % of control and 110 % of control | dose: 4.0 mg/kg/injection, schedule: Q01DX005 (ip), vehicle: DMSO 105 % of control | dose: 8.0 mg/kg/injection, schedule: Q01DX005 (ip), vehicle: DMSO 101 % of control and 104 % of control | dose: 16.0 mg/kg/injection, schedule: Q01DX005 (ip), vehicle: DMSO 111 % of control | dose: 32.0 mg/kg/injection, schedule: Q01DX005 (ip), vehicle: DMSO 108 % of control

Cc1cc2nc(CN(CCO)CCO)[nH]c2cc1C
inactive: [7] 100 % of control | [9] 98 % of control | [10] 98 % of control

CC1=CC(=O)C(C(C)C)=CC1=O
inactive: dose: 0.75 mg/kg/injection, schedule: Q01DX009 (ip), vehicle: saline with Tween-80 100 % of control | dose: 1.5 mg/kg/injection, schedule: Q01DX009 (ip), vehicle: saline with Tween-80 104 % of control | dose: 3.0 mg/kg/injection, schedule: Q01DX009 (ip), vehicle: saline with Tween-80 104 % of control

OCCN1CCN(CC/C=C2\c3ccccc3Sc3ccc(Cl)cc32)CC1
inactive: dose: 3.13 mg/kg/injection, schedule: Q01DX009 (ip), vehicle: saline 102 % of control | dose: 6.25 mg/kg/injection, schedule: Q01DX009 (ip), vehicle: saline 113 % of control | dose: 11.0 mg/kg/injection, schedule: Q01DX009 (ip), vehicle: saline with Tween-80 109 % of control | dose: 50.0 mg/kg/injection, schedule: Q04DX003 (ip), vehicle: saline 88 % of control

Source: PubChem BioAssay AID330 (DTP/NCI, 2004)
